Reference: patent US11613522B2, “Herbicidally active 3-phenylisoxazoline-5-carboxamides of tetrahydro- and dihydrofurancarboxamides” (BAYER AKTIENGESELLSCHAFT, priority 2017, dated 2023)

Legend:
Assay type in all cases: in vivo
Setaria viridis [1] = test: Pre-emergence herbicidal activity against SETVI; settings: Setaria viridis, 504 h, dosage 80 g/ha, scored visually after about 3 weeks vs untreated controls
How it was run: (§1)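 Seeds sown in pots and covered with soil; compounds formulated as WP or EC applied to the soil surface as aqueous suspension or emulsion with 0.5% additive at 600 l/ha water. Pots held in greenhouse; activity scored visually about 3 weeks later as % versus untreated controls (100% = dead).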

Abutilon theophrasti [2] = test: Pre-emergence herbicidal activity against ABUTH; settings: dosage 80 g/ha, scored visually after about 3 weeks vs untreated controls
Source text: (§2) 1. Pre-emergence herbicidal action against harmful plants and crop plant compatibility Seeds of monocotyledonous and dicotyledonous weed plants and crop plants are placed in plastic or wood fiber pots and covered with soil. The compounds of the invention, formulated in the form of wettable powders (WP) or as emulsion concentrates (EC), are then applied onto the surface of the covering soil as aqueous suspension or emulsion with addition of 0.5% additive at a water application rate of 600 l/ha (converted). After the treatment, the pots are placed in a greenhouse and kept under good growth conditions for the trial plants. After about 3 weeks, the effect of the preparations is scored visually in comparison with untreated controls as percentages. For example, 100% activity=the plants have died, 0% activity=like control plants. [table]

Viola tricolor [3] = test: Pre-emergence herbicidal activity against VIOTR; settings: Viola tricolor, 504 h, dosage 80 g/ha, scored visually after about 3 weeks vs untreated controls
How it was run: as §1

Alopecurus myosuroides [4] = test: Pre-emergence herbicidal activity against ALOMY; settings: Alopecurus myosuroides, 504 h, dosage 80 g/ha, scored visually after about 3 weeks vs untreated controls
How it was run: as §1

Hordeum murinum [5] = test: Pre-emergence herbicidal activity against HORMU; settings: Hordeum murinum, 504 h, dosage 80 g/ha
How it was run: as §1

Veronica persica [6] = test: Post-emergence herbicidal activity against VERPE; settings: Veronica persica, 504 h, dosage 320 g/ha, rated visually after about 3 weeks
How it was run: (§3)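 Seeds sown in sandy loam, greenhouse-grown; at one-leaf stage (2–3 wk) sprayed with WP/EC in water + 0.5% additive, 600 l/ha. ~3 wk greenhouse hold, then visual % activity vs untreated (100% = plants dead).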

Pharbitis purpurea [7] = test: Pre-emergence herbicidal activity against PHBPU; settings: dosage 80 g/ha, scored visually after about 3 weeks vs untreated controls
How it was run: as §1

[8] = Pre-emergence herbicidal action against harmful plants (summary of the tables); settings: 504 h, application rate of 0.08 kg of active substance or less per hectare, read-out: herbicidal action, pre-emergence treatment (very good activity)
How it was run: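 Seeds of weeds and crops were covered with soil, then WP or EC formulations were sprayed onto the soil surface pre-emergence at 600 l/ha water with 0.5% additive. Plants were grown in a greenhouse for about 3 weeks, and damage was scored visually as a percentage versus untreated controls (100% = plants dead).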

Viola tricolor [9] = test: Post-emergence herbicidal activity against VIOTR; settings: Viola tricolor, 504 h, dosage 320 g/ha, rated visually after about 3 weeks
How it was run: as §3

Veronica persica [10] = test: Pre-emergence herbicidal activity against VERPE; settings: Veronica persica, 504 h, dosage 80 g/ha
How it was run: as §1

Echinochloa crus-galli [11] = test: Pre-emergence herbicidal activity against ECHCG; settings: Echinochloa crus-galli, 504 h, dosage 80 g/ha, scored visually after about 3 weeks vs untreated controls
How it was run: as §1

Setaria viridis [12] = test: Post-emergence herbicidal activity against SETVI; settings: Setaria viridis, 504 h, dosage 320 g/ha, rated visually after about 3 weeks
How it was run: as §3

Polygonum convolvulus [13] = test: Post-emergence herbicidal activity against POLCO; settings: Fallopia convolvulus, 504 h, dosage 320 g/ha, rated visually after about 3 weeks
How it was run: as §3

Lolium rigidum [14] = test: Post-emergence herbicidal activity against LOLRI; settings: Lolium rigidum, 504 h, dosage 320 g/ha, rated visually after about 3 weeks
How it was run: as §3

Polygonum convolvulus [15] = test: Pre-emergence herbicidal activity against POLCO; settings: Fallopia convolvulus, 504 h, dosage 80 g/ha, scored visually after about 3 weeks vs untreated controls
How it was run: as §1

Pharbitis purpurea [16] = test: Post-emergence herbicidal activity against PHBPU; settings: Ipomoea purpurea, 504 h, dosage 320 g/ha, rated visually after about 3 weeks
How it was run: as §3

Stellaria media [17] = test: Post-emergence herbicidal activity against STEME; settings: Stellaria media, 504 h, dosage 320 g/ha, rated visually after about 3 weeks
How it was run: as §3

Stellaria media [18] = test: Pre-emergence herbicidal activity against STEME; settings: Stellaria media, 504 h, dosage 80 g/ha, scored visually after about 3 weeks vs untreated controls
How it was run: as §1

Abutilon theophrasti [19] = test: Post-emergence herbicidal activity against ABUTH; settings: Abutilon theophrasti, 504 h, dosage 320 g/ha, rated visually after about 3 weeks
How it was run: as §3

Amaranthus retroflexus [20] = test: Pre-emergence herbicidal activity against AMARE; settings: Amaranthus retroflexus, 504 h, dosage 80 g/ha, scored visually after about 3 weeks vs untreated controls
How it was run: as §1

Echinochloa crus-galli [21] = test: Post-emergence herbicidal activity against ECHCG; settings: Echinochloa crus-galli, 504 h, dosage 320 g/ha, rated visually after about 3 weeks
How it was run: as §3

Avena fatua [22] = test: Pre-emergence herbicidal activity against AVEFA; settings: Avena fatua, 504 h, dosage 80 g/ha, scored visually after about 3 weeks vs untreated controls, read-out: Pre-emergence herbicidal activity in % against AVEVA (AVEFA)
How it was run: as §1

Avena fatua [23] = test: Post-emergence herbicidal activity against AVEFA; settings: Avena fatua, 504 h, dosage 320 g/ha, rated visually after about 3 weeks
How it was run: as §3

Lolium rigidum [24] = test: Pre-emergence herbicidal activity against LOLRI; settings: Lolium rigidum, 504 h, dosage 80 g/ha, scored visually after about 3 weeks vs untreated controls
How it was run: as §1

Alopecurus myosuroides [25] = test: Post-emergence herbicidal activity against ALOMY; settings: Alopecurus myosuroides, 504 h, dosage 320 g/ha, rated visually after about 3 weeks
How it was run: as §3

Cyperus esculentus = test: Pre-emergence herbicidal activity against CYPES; settings: dosage 80 g/ha, scored visually after about 3 weeks vs untreated controls
Source text: as §2

Hordeum murinum [26] = test: Post-emergence herbicidal activity against HORMU; settings: Hordeum murinum, 504 h, dosage 320 g/ha, rated visually after about 3 weeks
How it was run: as §3

Amaranthus retroflexus [27] = test: Post-emergence herbicidal activity against AMARE; settings: Amaranthus retroflexus, 504 h, dosage 320 g/ha, rated visually after about 3 weeks
How it was run: as §3

| SMILES | pest or weed control at 80 g/ha (Setaria viridis [1]) | pest or weed control at 80 g/ha (Viola tricolor [3]) | pest or weed control at 80 g/ha (Alopecurus myosuroides [4]) | pest or weed control at 80 g/ha (Hordeum murinum [5]) | pest or weed control at 320 g/ha (Veronica persica [6]) | Pre-emergence herbicidal activity in % against PHBPU (Pharbitis purpurea [7]) | pest or weed control at 80 g/ha [8] | pest or weed control at 320 g/ha (Viola tricolor [9]) | pest or weed control at 80 g/ha (Veronica persica [10]) | pest or weed control at 80 g/ha (Echinochloa crus-galli [11]) | pest or weed control at 320 g/ha (Setaria viridis [12]) | pest or weed control at 320 g/ha (Polygonum convolvulus [13]) | pest or weed control at 320 g/ha (Lolium rigidum [14]) | pest or weed control at 80 g/ha (Polygonum convolvulus [15]) | pest or weed control at 320 g/ha (Pharbitis purpurea [16]) | pest or weed control at 320 g/ha (Stellaria media [17]) | pest or weed control at 80 g/ha (Stellaria media [18]) | pest or weed control at 80 g/ha (Amaranthus retroflexus [20]) | pest or weed control at 320 g/ha (Echinochloa crus-galli [21]) | pest or weed control at 80 g/ha (Avena fatua [22]) | other results |
| --- | --- | --- | --- | --- | --- | --- | --- | --- | --- | --- | --- | --- | --- | --- | --- | --- | --- | --- | --- | --- | --- |
| C=C[C@]1(C(=O)N[C@@H]2CO[C@H](C(=O)NOC)C2)CC(c2cc(F)cc(F)c2)=NO1 (mixture of isomers) [Example I-11, (5S)-3-(3,5-difluorophenyl)-N-[cis-5-(methoxycarbamoyl)tetrahydrofuran-3-yl]-5-vinyl-4H-isoxazole-5-carboxamide] | 100% | 100% | 100% | 90% | 80% | 90% | 80 to 100% | 80% | 90% | 100% | 90% | 80% | 90% | 100% | 80% | 90% | 100% | 100% | 90% | 100% | Pre-emergence herbicidal activity in % against ABUTH (Abutilon theophrasti [2]): 100%; pest or weed control at 320 g/ha (Abutilon theophrasti [19]): 80%; pest or weed control at 320 g/ha (Avena fatua [23]): 90%; pest or weed control at 80 g/ha (Lolium rigidum [24]): 100%; pest or weed control at 320 g/ha (Alopecurus myosuroides [25]): 90% |
| C=C[C@]1(C(=O)N[C@@H]2CO[C@H](C(=O)NS(C)(=O)=O)C2)CC(c2cc(F)cc(F)c2)=NO1 (mixture of isomers) [Example I-16, (5S)-3-(3,5-difluorophenyl)-N-[cis-5-(methylsulfonylcarbamoyl)tetrahydrofuran-3-yl]-5-vinyl-4H-isoxazole-5-carboxamide] | 100% | 100% | 100% | 100% | 80% | 90% | 80 to 100% | 80% | 90% | 100% | 80% | – | 90% | 100% | 80% | 90% | 100% | 100% | 90% | 100% | Pre-emergence herbicidal activity in % against CYPES (Cyperus esculentus): 100%; pest or weed control at 320 g/ha (Hordeum murinum [26]): 80%; pest or weed control at 320 g/ha (Amaranthus retroflexus [27]): 90%; pest or weed control at 320 g/ha (Abutilon theophrasti [19]): 80%; pest or weed control at 80 g/ha (Lolium rigidum [24]): 100%; pest or weed control at 320 g/ha (Alopecurus myosuroides [25]): 90% |
| C=C[C@]1(C(=O)N[C@@H]2CO[C@H](C(=O)N(C)C)C2)CC(c2cc(F)cc(F)c2)=NO1 (mixture of isomers) [Example I-17, (5S)-3-(3,5-difluorophenyl)-N-[cis-5-(dimethylcarbamoyl)tetrahydrofuran-3-yl]-5-vinyl-4H-isoxazole-5-carboxamide] | 100% | 100% | 90% | 100% | 80% | 90% | 80 to 100% | 80% | 100% | 100% | 90% | 80% | 90% | 100% | 80% | 90% | 100% | 100% | 80% | 100% | Pre-emergence herbicidal activity in % against ABUTH (Abutilon theophrasti [2]): 80%; pest or weed control at 320 g/ha (Hordeum murinum [26]): 80%; pest or weed control at 320 g/ha (Amaranthus retroflexus [27]): 90%; pest or weed control at 320 g/ha (Avena fatua [23]): 90%; pest or weed control at 80 g/ha (Lolium rigidum [24]): 100%; pest or weed control at 320 g/ha (Alopecurus myosuroides [25]): 90% |
| C=C[C@]1(C(=O)N[C@@H]2CO[C@H](C(=O)NC3CC3)C2)CC(c2cc(F)cc(F)c2)=NO1 (mixture of isomers) [Example I-18, (5S)—N-[cis-5-(cyclopropylcarbamoyl)tetrahydrofuran-3-yl]-3-(3,5-difluorophenyl)-5-vinyl-4H-isoxazole-5-carboxamide] | 100% | 100% | 100% | 100% | 80% | 90% | 80 to 100% | 80% | 90% | 90% | 90% | 90% | 90% | 100% | 90% | 90% | 100% | 100% | 90% | 90% | pest or weed control at 320 g/ha (Hordeum murinum [26]): 90%; pest or weed control at 320 g/ha (Amaranthus retroflexus [27]): 90%; pest or weed control at 320 g/ha (Abutilon theophrasti [19]): 90%; pest or weed control at 320 g/ha (Avena fatua [23]): 90%; pest or weed control at 80 g/ha (Lolium rigidum [24]): 100%; pest or weed control at 320 g/ha (Alopecurus myosuroides [25]): 90% |
| CNC(=O)C1COCC1NC(=O)C1(C)CC(c2cc(F)cc(F)c2)=NO1 (stereo not drawn) [Example I-07, 3-(3,5-difluorophenyl)-5-methyl-N-[4-(methylcarbamoyl)tetrahydrofuran-3-yl]-4H-isoxazole-5-carboxamide] | – | – | – | – | – | – | – | – | – | 100% | – | 80% | – | – | 80% | – | – | – | – | – | Pre-emergence herbicidal activity in % against ABUTH (Abutilon theophrasti [2]): 100% |
| CC1(C(=O)NC2COCC2C(=O)N2CCCC2)CC(c2cc(F)cc(F)c2)=NO1 (stereo not drawn) [Example I-09, 3-(3,5-difluorophenyl)-5-methyl-N-[4-(pyrrolidine-1-carbonyl)tetrahydrofuran-3-yl]-4H-isoxazole-5-carboxamide] | – | – | – | – | – | – | – | – | – | – | – | – | – | – | 80% | – | – | – | – | – | Pre-emergence herbicidal activity in % against CYPES (Cyperus esculentus): 100% |
